In patent US20230150960A1, “COMPOSITIONS AND METHODS OF USING CYANINE DYES TO TARGET CANCER AND MITOCHONDRIA” (Thomas Jefferson University, priority 2020, published 2023):

What was measured:
Type in all cases: physicochemical
[1] = Solubility of glycerol-containing formulations (post vortexing, 30 min and overnight at 18° C.); settings: compound 2 mg/mL; for solubility at 30 min / solubility / solubility at 30 s: glycerol-containing formulation; for solubility at 30 min / solubility: 18 °C; for solubility at 30 min: after 30 minutes incubation at 18° C.; for solubility at 30 s: post vortexing
Method: Tables 3A, 3B, and 3C describe solubility experiments conducted with the indicated compounds under the listed conditions. Vortexing was conducted using a Denville Vortexer 59 (Denville Scientific Inc.), at maximum speed for 30 seconds. As used herein, the term overnight refers to a period lasting at least about 12-24 hours.

[2] = Solubility of BSA-containing formulations (post vortexing, 30 min and overnight at 18° C.); settings: compound 2 mg/mL; for solubility at 30 min / solubility: BSA-containing formulation, 18 °C, aqueous with cosolvent or surfactant or cyclodextrin; for solubility at 30 min: after 30 minutes incubation at 18° C.
Method: Vortexing was conducted using a Denville Vortexer 59 (Denville Scientific Inc.), at maximum speed for 30 seconds. As used herein, the term overnight refers to a period lasting at least about 12-24 hours.

[3] = Solubility of sodium deoxycholate-containing formulations (post vortexing, 30 min and overnight at 18° C.); settings: compound 2 mg/mL; for solubility at 30 s: post vortexing
Method: Tables 5A, 5B, and 5C describe solubility experiments conducted with the indicated compounds under the listed conditions. Vortexing was conducted using a Denville Vortexer 59 (Denville Scientific Inc.), at maximum speed for 30 seconds. As used herein, the term overnight refers to a period lasting at least about 12-24 hours.

CCN1/C(=C/C=C/c2sc3ccccc3[n+]2CC)Sc2ccccc21 [JAC-B1, 3′,3′-Diethylthiacarbocyanine iodide]
Solubility of glycerol-containing formulations after overnight incubation at 18° C., 50% ([1]; 50% glycerol, overnight incubation at 18° C.): MFG
solubility at 30 min ([1]; aqueous with cosolvent or surfactant or cyclodextrin, 10% glycerol, read-out: Solubility of glycerol-containing formulations after 30 min incubation at 18° C., 10%): < 2000 µg/mL
solubility ([1]; aqueous with cosolvent or surfactant or cyclodextrin, 10% glycerol, overnight incubation at 18° C., read-out: Solubility of glycerol-containing formulations after overnight incubation at 18° C., 10%): < 2000 µg/mL
solubility at 30 min ([1]; aqueous with cosolvent or surfactant or cyclodextrin, 20% glycerol, read-out: Solubility of glycerol-containing formulations after 30 min incubation at 18° C., 20%): < 2000 µg/mL
solubility ([1]; aqueous with cosolvent or surfactant or cyclodextrin, 20% glycerol, overnight incubation at 18° C., read-out: Solubility of glycerol-containing formulations after overnight incubation at 18° C., 20%): < 2000 µg/mL
solubility at 30 min ([1]; aqueous with cosolvent or surfactant or cyclodextrin, 30% glycerol, read-out: Solubility of glycerol-containing formulations after 30 min incubation at 18° C., 30%): < 2000 µg/mL
solubility ([1]; aqueous with cosolvent or surfactant or cyclodextrin, 30% glycerol, overnight incubation at 18° C., read-out: Solubility of glycerol-containing formulations after overnight incubation at 18° C., 30%): < 2000 µg/mL
solubility at 30 min ([1]; aqueous with cosolvent or surfactant or cyclodextrin, 40% glycerol, read-out: Solubility of glycerol-containing formulations after 30 min incubation at 18° C., 40%): < 2000 µg/mL
solubility ([1]; aqueous with cosolvent or surfactant or cyclodextrin, 40% glycerol, overnight incubation at 18° C., read-out: Solubility of glycerol-containing formulations after overnight incubation at 18° C., 40%): < 2000 µg/mL
solubility at 30 min ([1]; aqueous with cosolvent or surfactant or cyclodextrin, 50% glycerol, read-out: Solubility of glycerol-containing formulations after 30 min incubation at 18° C., 50%): > 2000 µg/mL
solubility at 30 min ([1]; 0% glycerol, read-out: Solubility of glycerol-containing formulations after 30 min incubation at 18° C., 0%): < 2000 µg/mL
solubility ([1]; 0% glycerol, overnight incubation at 18° C., read-out: Solubility of glycerol-containing formulations after overnight incubation at 18° C., 0%): < 2000 µg/mL
solubility at 30 s ([1]; aqueous with cosolvent or surfactant or cyclodextrin, 10% glycerol, read-out: Solubility of glycerol-containing formulations post vortexing, 10%): < 2000 µg/mL
solubility at 30 s ([1]; aqueous with cosolvent or surfactant or cyclodextrin, 20% glycerol, read-out: Solubility of glycerol-containing formulations post vortexing, 20%): < 2000 µg/mL
solubility at 30 s ([1]; aqueous with cosolvent or surfactant or cyclodextrin, 30% glycerol, read-out: Solubility of glycerol-containing formulations post vortexing, 30%): < 2000 µg/mL
solubility at 30 s ([1]; aqueous with cosolvent or surfactant or cyclodextrin, 40% glycerol, read-out: Solubility of glycerol-containing formulations post vortexing, 40%): < 2000 µg/mL
solubility at 30 s ([1]; aqueous with cosolvent or surfactant or cyclodextrin, 50% glycerol, read-out: Solubility of glycerol-containing formulations post vortexing, 50%): > 2000 µg/mL
solubility at 30 s ([1]; 0% glycerol, read-out: Solubility of glycerol-containing formulations post vortexing, 0%): < 2000 µg/mL
solubility at 30 min ([2]; BSA 5 mg/mL, read-out: Solubility of BSA-containing formulations after 30 min incubation at 18° C., 5 mg/mL): < 2000 µg/mL
solubility at 30 min ([2]; BSA 10 mg/mL, read-out: Solubility of BSA-containing formulations after 30 min incubation at 18° C., 10 mg/mL): < 2000 µg/mL
solubility at 30 min ([2]; BSA 15 mg/mL, read-out: Solubility of BSA-containing formulations after 30 min incubation at 18° C., 15 mg/mL): < 2000 µg/mL
solubility at 30 min ([2]; BSA 25 mg/mL, read-out: Solubility of BSA-containing formulations after 30 min incubation at 18° C., 25 mg/mL): > 2000 µg/mL
solubility at 30 min ([2]; BSA 80 mg/mL, read-out: Solubility of BSA-containing formulations after 30 min incubation at 18° C., 80 mg/mL): > 2000 µg/mL
solubility ([2]; BSA 80 mg/mL, overnight incubation at 18° C., read-out: Solubility of BSA-containing formulations after overnight incubation at 18° C., 80 mg/mL): > 2000 µg/mL
solubility at 30 min ([2]; BSA 100 mg/mL, read-out: Solubility of BSA-containing formulations after 30 min incubation at 18° C., 100 mg/mL): > 2000 µg/mL
solubility ([2]; BSA 100 mg/mL, overnight incubation at 18° C., read-out: Solubility of BSA-containing formulations after overnight incubation at 18° C., 100 mg/mL): > 2000 µg/mL
Solubility of BSA-containing formulations after overnight incubation at 18° C., 5 mg/mL ([2]; BSA 5 mg/mL, overnight incubation at 18° C.): MFG
Solubility of BSA-containing formulations after overnight incubation at 18° C., 10 mg/mL ([2]; BSA 10 mg/mL, overnight incubation at 18° C.): MFG
Solubility of BSA-containing formulations after overnight incubation at 18° C., 15 mg/mL ([2]; BSA 15 mg/mL, overnight incubation at 18° C.): MFG
Solubility of BSA-containing formulations after overnight incubation at 18° C., 25 mg/mL ([2]; BSA 25 mg/mL, overnight incubation at 18° C.): MFG
Solubility of sodium deoxycholate-containing formulations after 30 min incubation at 18° C., 50 mg/mL ([3]; sodium deoxycholate 50 mg/mL, after 30 minutes incubation at 18° C.): MFG
Solubility of sodium deoxycholate-containing formulations after 30 min incubation at 18° C., 100 mg/mL ([3]; sodium deoxycholate 100 mg/mL, after 30 minutes incubation at 18° C.): MFG
solubility at 30 s ([3]; sodium deoxycholate-containing formulation, aqueous with cosolvent or surfactant or cyclodextrin, sodium deoxycholate 12.5 mg/mL, read-out: Solubility of sodium deoxycholate-containing formulations post vortexing, 12.5 mg/mL): < 2000 µg/mL
solubility at 30 s ([3]; sodium deoxycholate-containing formulation, aqueous with cosolvent or surfactant or cyclodextrin, sodium deoxycholate 25 mg/mL, read-out: Solubility of sodium deoxycholate-containing formulations post vortexing, 25 mg/mL): < 2000 µg/mL
solubility at 30 s ([3]; sodium deoxycholate-containing formulation, aqueous with cosolvent or surfactant or cyclodextrin, sodium deoxycholate 50 mg/mL, read-out: Solubility of sodium deoxycholate-containing formulations post vortexing, 50 mg/mL): < 2000 µg/mL
solubility at 30 s ([3]; sodium deoxycholate-containing formulation, aqueous with cosolvent or surfactant or cyclodextrin, sodium deoxycholate 100 mg/mL, read-out: Solubility of sodium deoxycholate-containing formulations post vortexing, 100 mg/mL): < 2000 µg/mL
solubility at 30 min ([3]; sodium deoxycholate-containing formulation, aqueous with cosolvent or surfactant or cyclodextrin, sodium deoxycholate 12.5 mg/mL, after 30 minutes incubation at 18° C.): < 2000 µg/mL
solubility ([3]; sodium deoxycholate-containing formulation, aqueous with cosolvent or surfactant or cyclodextrin, sodium deoxycholate 12.5 mg/mL, overnight incubation at 18° C., read-out: Solubility of sodium deoxycholate-containing formulations after overnight incubation at 18° C., 12.5 mg/mL): < 2000 µg/mL
